Test results: paper PMC4979471 (Cell Death Discovery, 2015)
Like-named read-outs stand apart in the source and are kept apart here.

Columns and labels:
Experiment in all cases: Kinase selectivity, P33-radiolabeled assay
Assay type in all cases: biochemical
Details in all cases: 10 μM ATP
[1] = biological target: T1, TBK1 (Homo sapiens, UniProt Q9UHD2)
T1 construct: purchased Reaction Biology Corp
T1 sequence (Q9UHD2 1-729): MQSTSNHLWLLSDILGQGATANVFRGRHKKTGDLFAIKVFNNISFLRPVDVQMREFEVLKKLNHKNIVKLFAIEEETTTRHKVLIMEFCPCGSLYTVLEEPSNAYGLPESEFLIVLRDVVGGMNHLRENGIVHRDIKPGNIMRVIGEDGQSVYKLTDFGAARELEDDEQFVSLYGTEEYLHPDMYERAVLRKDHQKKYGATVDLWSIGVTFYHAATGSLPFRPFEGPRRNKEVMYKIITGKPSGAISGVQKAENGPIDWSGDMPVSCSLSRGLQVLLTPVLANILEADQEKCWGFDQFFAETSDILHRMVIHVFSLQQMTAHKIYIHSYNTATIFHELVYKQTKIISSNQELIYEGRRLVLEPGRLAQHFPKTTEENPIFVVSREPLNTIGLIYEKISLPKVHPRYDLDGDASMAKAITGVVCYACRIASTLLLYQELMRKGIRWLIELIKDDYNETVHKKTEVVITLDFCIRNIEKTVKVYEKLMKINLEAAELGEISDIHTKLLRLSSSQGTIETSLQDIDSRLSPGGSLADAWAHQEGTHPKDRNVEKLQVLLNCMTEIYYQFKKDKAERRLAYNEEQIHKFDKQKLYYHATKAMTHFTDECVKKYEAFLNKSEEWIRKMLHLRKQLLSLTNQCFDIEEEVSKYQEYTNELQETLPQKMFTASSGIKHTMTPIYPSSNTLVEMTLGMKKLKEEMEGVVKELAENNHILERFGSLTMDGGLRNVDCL
Outline: (§1)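 Percent residual kinase activity versus DMSO is reported. Conditions: compound at 10 μM, ATP at 10 μM, n = 2.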

[2] = biological target: T2, PKG2/PRKG2 (Homo sapiens, UniProt Q13237)
T2 construct: purchased Reaction Biology Corp
T2 sequence (Q13237 1-762): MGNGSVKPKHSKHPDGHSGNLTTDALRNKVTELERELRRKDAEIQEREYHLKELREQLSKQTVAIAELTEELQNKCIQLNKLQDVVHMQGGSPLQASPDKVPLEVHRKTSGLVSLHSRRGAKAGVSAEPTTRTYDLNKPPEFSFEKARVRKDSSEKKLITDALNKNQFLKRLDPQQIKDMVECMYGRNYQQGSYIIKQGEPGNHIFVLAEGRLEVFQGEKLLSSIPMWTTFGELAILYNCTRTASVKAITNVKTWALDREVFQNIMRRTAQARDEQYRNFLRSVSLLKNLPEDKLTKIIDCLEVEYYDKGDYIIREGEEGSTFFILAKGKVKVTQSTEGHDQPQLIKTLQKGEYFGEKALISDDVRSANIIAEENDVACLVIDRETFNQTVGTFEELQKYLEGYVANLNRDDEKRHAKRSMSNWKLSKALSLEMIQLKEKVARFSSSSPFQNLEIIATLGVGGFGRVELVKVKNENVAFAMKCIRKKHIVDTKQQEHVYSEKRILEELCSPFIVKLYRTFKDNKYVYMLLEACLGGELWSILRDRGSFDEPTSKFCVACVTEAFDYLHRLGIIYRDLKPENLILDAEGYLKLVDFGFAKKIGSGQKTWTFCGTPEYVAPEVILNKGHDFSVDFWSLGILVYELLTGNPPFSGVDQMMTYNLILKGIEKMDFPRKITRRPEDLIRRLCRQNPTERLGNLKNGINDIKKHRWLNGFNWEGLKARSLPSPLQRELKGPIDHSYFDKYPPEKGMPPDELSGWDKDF
Outline: as §1

[3] = biological target: T3, DAPK1 (Homo sapiens, UniProt P53355)
T3 construct: purchased Reaction Biology Corp
T3 sequence (P53355 whole entry): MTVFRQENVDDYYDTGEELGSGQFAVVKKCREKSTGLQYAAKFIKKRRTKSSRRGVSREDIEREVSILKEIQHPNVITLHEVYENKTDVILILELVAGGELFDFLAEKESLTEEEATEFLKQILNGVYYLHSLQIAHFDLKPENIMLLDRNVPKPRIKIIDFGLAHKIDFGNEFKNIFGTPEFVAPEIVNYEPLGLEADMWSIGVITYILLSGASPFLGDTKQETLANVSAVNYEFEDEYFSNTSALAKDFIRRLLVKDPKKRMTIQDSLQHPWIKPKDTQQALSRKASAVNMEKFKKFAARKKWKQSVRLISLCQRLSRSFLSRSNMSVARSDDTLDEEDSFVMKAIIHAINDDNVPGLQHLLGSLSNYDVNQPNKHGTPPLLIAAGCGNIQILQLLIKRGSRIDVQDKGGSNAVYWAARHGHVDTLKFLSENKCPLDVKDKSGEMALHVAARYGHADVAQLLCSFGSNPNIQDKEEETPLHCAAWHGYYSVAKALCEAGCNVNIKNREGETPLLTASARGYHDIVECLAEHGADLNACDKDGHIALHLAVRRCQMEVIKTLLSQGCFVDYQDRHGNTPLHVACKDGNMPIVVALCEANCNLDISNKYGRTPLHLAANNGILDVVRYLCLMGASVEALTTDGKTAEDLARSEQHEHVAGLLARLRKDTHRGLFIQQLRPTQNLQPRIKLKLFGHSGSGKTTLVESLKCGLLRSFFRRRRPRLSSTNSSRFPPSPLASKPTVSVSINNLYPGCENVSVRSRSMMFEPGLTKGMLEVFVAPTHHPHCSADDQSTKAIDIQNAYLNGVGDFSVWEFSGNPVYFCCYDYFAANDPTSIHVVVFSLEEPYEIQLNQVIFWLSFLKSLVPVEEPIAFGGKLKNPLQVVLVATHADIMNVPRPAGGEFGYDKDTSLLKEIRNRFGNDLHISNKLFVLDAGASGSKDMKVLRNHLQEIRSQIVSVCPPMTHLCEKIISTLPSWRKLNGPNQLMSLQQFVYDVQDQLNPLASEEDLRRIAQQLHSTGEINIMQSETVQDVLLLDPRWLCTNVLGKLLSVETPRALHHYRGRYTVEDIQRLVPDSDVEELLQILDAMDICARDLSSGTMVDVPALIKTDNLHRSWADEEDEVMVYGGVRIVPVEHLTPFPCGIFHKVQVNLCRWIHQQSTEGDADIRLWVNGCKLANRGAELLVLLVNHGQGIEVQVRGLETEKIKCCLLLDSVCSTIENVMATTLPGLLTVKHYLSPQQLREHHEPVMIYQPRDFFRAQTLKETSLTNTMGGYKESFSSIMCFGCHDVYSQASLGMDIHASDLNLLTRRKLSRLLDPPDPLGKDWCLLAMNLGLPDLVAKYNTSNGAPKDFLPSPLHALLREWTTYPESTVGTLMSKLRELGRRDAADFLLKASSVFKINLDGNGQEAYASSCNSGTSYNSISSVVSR
Outline: as §1

[4] = biological target: T4, PKCg (Homo sapiens, UniProt P05129)
T4 construct: purchased Reaction Biology Corp
Outline: as §1

[5] = biological target: T5, ZAP70 (Homo sapiens, UniProt P43403)
T5 construct: purchased Reaction Biology Corp
T5 sequence (P43403 1-619): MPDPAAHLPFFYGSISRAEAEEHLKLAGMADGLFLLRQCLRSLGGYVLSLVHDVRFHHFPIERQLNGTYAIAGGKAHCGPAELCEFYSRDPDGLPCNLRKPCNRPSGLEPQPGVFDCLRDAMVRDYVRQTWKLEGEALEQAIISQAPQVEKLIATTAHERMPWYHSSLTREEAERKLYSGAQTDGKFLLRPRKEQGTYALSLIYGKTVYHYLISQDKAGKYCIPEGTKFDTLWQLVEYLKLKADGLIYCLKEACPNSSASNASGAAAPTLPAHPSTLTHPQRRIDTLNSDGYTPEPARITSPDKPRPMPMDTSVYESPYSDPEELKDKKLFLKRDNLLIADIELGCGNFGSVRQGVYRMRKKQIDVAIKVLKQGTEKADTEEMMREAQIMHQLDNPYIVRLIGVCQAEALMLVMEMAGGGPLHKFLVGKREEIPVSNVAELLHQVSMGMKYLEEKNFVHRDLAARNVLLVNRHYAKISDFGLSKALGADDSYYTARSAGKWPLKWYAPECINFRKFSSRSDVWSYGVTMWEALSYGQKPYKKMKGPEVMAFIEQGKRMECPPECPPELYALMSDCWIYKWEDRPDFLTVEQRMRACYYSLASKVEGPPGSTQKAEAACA
Outline: as §1

[6] = biological target: T6, MARK2/PAR-1Ba (Homo sapiens, UniProt Q7KZI7)
T6 construct: purchased Reaction Biology Corp
T6 sequence (Q7KZI7 whole entry): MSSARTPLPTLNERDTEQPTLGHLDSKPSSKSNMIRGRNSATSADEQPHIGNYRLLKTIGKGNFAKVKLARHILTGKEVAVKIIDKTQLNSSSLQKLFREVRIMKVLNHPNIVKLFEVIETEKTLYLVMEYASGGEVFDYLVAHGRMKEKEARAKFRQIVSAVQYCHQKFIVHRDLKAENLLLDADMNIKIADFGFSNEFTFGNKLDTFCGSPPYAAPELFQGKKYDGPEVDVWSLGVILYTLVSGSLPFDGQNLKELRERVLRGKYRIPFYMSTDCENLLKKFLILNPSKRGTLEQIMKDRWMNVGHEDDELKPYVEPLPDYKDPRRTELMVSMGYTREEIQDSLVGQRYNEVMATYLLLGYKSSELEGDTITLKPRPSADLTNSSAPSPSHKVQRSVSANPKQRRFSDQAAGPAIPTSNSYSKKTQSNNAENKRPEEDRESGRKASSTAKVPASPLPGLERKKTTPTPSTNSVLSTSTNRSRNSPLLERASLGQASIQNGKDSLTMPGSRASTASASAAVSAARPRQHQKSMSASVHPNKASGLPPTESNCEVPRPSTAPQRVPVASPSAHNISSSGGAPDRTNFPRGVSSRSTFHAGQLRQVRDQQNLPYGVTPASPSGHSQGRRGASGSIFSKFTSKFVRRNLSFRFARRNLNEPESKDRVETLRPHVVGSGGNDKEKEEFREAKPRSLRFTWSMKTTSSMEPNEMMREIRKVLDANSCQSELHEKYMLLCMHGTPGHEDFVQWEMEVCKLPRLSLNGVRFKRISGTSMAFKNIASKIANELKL
Outline: as §1

[7] = biological target: T7, CK1g2 (Homo sapiens, UniProt P78368)
T7 construct: purchased Reaction Biology Corp
T7 sequence (P78368 whole entry): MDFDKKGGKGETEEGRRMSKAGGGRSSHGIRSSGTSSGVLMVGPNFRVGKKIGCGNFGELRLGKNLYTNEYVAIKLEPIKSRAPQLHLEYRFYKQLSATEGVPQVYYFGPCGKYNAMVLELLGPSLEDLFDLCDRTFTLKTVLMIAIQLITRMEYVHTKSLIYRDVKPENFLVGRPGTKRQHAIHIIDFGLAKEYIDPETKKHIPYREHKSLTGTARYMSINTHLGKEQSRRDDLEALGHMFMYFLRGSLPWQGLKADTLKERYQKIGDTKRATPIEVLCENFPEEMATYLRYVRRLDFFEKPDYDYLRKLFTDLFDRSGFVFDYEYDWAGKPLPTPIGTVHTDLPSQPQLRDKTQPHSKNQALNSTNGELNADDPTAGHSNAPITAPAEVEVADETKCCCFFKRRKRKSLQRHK
Outline: as §1

[8] = biological target: T8, CK1d (Homo sapiens, UniProt P48730)
T8 construct: purchased Reaction Biology Corp
T8 sequence (P48730 whole entry): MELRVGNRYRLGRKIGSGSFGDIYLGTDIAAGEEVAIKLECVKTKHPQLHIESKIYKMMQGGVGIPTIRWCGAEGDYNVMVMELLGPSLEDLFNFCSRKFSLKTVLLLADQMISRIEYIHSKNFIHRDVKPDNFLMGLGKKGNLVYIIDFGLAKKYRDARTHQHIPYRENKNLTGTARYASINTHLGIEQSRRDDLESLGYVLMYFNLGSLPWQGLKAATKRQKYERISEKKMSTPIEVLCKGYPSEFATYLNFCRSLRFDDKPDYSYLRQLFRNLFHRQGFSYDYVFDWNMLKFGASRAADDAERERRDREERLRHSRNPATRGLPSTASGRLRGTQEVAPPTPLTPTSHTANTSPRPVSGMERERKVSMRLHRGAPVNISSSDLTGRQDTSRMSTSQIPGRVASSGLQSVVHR
Outline: as §1

[9] = read-out: % Enzyme Activity (relative to DMSO controls) AVG
[10] = read-out: % Enzyme Activity (relative to DMSO controls) Data 1
[11] = read-out: % Enzyme Activity (relative to DMSO controls) Data 2

`CC(C)(C)C(=O)N1N=CC[C@H]1c1ccccc1` [GSK′963] gave a remaining activity at 10 µM [1, 9] of 86%, a remaining activity at 10 µM [1, 10] of 86.8% and a remaining activity at 10 µM [1, 11] of 85.3%. It also gave a remaining activity at 10 µM [2, 9] of 105%, a remaining activity at 10 µM [2, 10] of 98.2% and a remaining activity at 10 µM [2, 11] of 112%. It also gave a remaining activity at 10 µM [3, 9] of 70.8%, a remaining activity at 10 µM [3, 10] of 72.5% and a remaining activity at 10 µM [3, 11] of 69.2%. It also gave a remaining activity at 10 µM [4, 9] of 88.5%, a remaining activity at 10 µM [4, 10] of 86.8% and a remaining activity at 10 µM [4, 11] of 90.2%. For the same compound, the remaining activity at 10 µM [5, 9] was 111%, the remaining activity at 10 µM [5, 10] was 111% and the remaining activity at 10 µM [5, 11] was 111%. The remaining activity at 10 µM [6, 9] was 105%, the remaining activity at 10 µM [6, 10] was 106% and the remaining activity at 10 µM [6, 11] was 104%. For the same compound, the remaining activity at 10 µM [7, 9] was 112%, the remaining activity at 10 µM [7, 10] was 112% and the remaining activity at 10 µM [7, 11] was 111%. It also gave a remaining activity at 10 µM [8, 9] of 96.7%, a remaining activity at 10 µM [8, 10] of 94.1% and a remaining activity at 10 µM [8, 11] of 99.2%.
